Test results from US4593090A, “Novel nitrosourea compounds, method for preparing same, and pharmaceutical composition containing same” (Gogo Kimura, priority 1981, dated 1986).
Read-outs that look alike come from different tables or passages of the source.

Key:
Leukemia L1210 = assay: Activity against Leukemia L1210, intraperitoneal, increase in life span of mice; assay type: in vivo, female mice (BDF1 family); details: for ED (maximum ILS) / ED30: Mus musculus, L1210, ip, ip once a day for 5 successive days; for ED (maximum ILS): daily dosage giving maximum increase of life span, read-out: O.D. (optimum dosage); for ED30: daily dosage increasing average survival days by 30%, read-out: ILS30; for Survivors after 60 days / Max. ILS % / Therapeutic ratio TR: ip; for Survivors after 60 days: 6-membered group; for Max. ILS %: 60-day observation, versus control; for Therapeutic ratio TR: O.D./ILS30
Method in brief: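 Beginning 24 hours after intraperitoneal implantation of 1×10^5 leukemia cells, six-mouse groups of female BDF1 mice receive the test compound once daily for five consecutive days by the ip or oral route. Survival is recorded up to 60 days and compared with untreated controls.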

Ehrlich acites carcinoma = assay: Growth-inhibiting effect against Ehrlich acites carcinoma; assay type: in vivo, male mice; details: Mus musculus, Ehrlich, 120 h, 5 days; for response vs control in vivo at 25 mg/kg: 25 mg/kg/day ip; for response vs control in vivo at 100 mg/kg: 100 mg/kg/day ip; for response vs control in vivo at 50 mg/kg: 50 mg/kg/day ip; for response vs control in vivo at 200 mg/kg: 200 mg/kg/day ip
Method: Ehrlich acites carcinoma (1×10^7 cells) was implantated into the abdominal cavities of a 6-membered group of male mice. Test compounds (solutions or suspensions in 1% Nikohl HCO-60) were each intraperioneally administered once a day 5 successive days to the mice 24 hrs. after the implantation. Total packed cell volumes [TPCV, namely, total packed volumes of Acites carcinoma] were determined 7 days after the implantation to calculate growth ratio of tumor [T/C%; T: packed volume of Acites carcinoma in treated groups, C: packed volume of Acites carcinoma in an untreated group]. Acitivity is represented by - when T/C% is 100-66, by + when T/C% 65-41, by ++ when T/C% 40-11, and by +++ when T/C% 10-0.

[1] = Acute toxicity (LD50, Behrens-Karber method); assay type: in vivo, ICR mice; details: mouse, in vivo, ip, mortality during 30 days
Method: Test compounds, dissolved or suspended in 0.5% aqueous CMC, were each intraperitoneally administered to ICR mice in a dose of 0.1 ml per 10 g body weight. LD50 (mg/kg) value of each test compound was calculated from the mortality of mice during 30 days by the Behrens-Karber method.

Row | Structure (SMILES) | ED (maximum ILS) (Leukemia L1210) [mg/kg] | ED30 (Leukemia L1210) [mg/kg] | Survivors after 60 days (Leukemia L1210) | Max. ILS % (Leukemia L1210) [%] | Therapeutic ratio TR (Leukemia L1210) | response vs control in vivo at 25 mg/kg (Ehrlich acites carcinoma; read-out: Activity) [%] | response vs control in vivo at 25 mg/kg (Ehrlich acites carcinoma; read-out: T/C %) [%] | response vs control in vivo at 100 mg/kg (Ehrlich acites carcinoma; read-out: Activity) [%] | response vs control in vivo at 100 mg/kg (Ehrlich acites carcinoma; read-out: T/C %) [%] | LD50 at 720 h [1] [mg/kg] | response vs control in vivo at 50 mg/kg (Ehrlich acites carcinoma; read-out: Activity) [%] | response vs control in vivo at 50 mg/kg (Ehrlich acites carcinoma; read-out: T/C %) [%] | response vs control in vivo at 200 mg/kg (Ehrlich acites carcinoma; read-out: Activity) [%] | response vs control in vivo at 200 mg/kg (Ehrlich acites carcinoma; read-out: T/C %) [%]
1 | COc1cccc(CO[C@H]2O[C@H](CN(CC(C)C)C(=O)N(CCCl)N=O)[C@@H](O)[C@H](O)[C@H]2O)c1OC [Compound 52, 3-isobutyl-3-(2,3-dimethoxybenzyl α-D-glucopyranose-6-yl)-1-(2-chloroethyl)-1-nitrosourea] | 120 | 3.62 | 4/6 | > 420 | 33.1 | 0 to 10 | 0 | 0 to 10 | 0 | 360 | – | – | – | –
2 | CCCCOC1OC(CO)C(O)C(O)C1N(CC1CCCO1)C(=O)N(CCCl)N=O [Compound 63, 3-tetrahydrofurfuryl-3-(n-butyl α-D-glucopyranose-2-yl)-1-(2-chloroethyl)-1-nitrosourea] | 190 | 5.31 | 3/6 | > 350 | 35.8 | 0 to 10 | 0 | 0 to 10 | 0 | 595 | – | – | – | –
3 | CCCCOC1OC(CO)C(O)C(N(CCCOC)C(=O)N(CCCl)N=O)C1O [Compound 82, 3-(3-methoxy-n-propyl)-3-(n-butyl α-D-glucopyranose-3-yl)-1-(2-chloroethyl)-1-nitrosourea] | 200 | 5.5 | 3/6 | > 345 | 30.4 | 0 to 10 | 0 | 0 to 10 | 0 | 655 | – | – | – | –
4 | COCC(C)N(C(=O)N(CCCl)N=O)C1C(CO)OC(OCC(C)C)C(O)C1O [Compound 94, 3-(1-methyl-2-methoxyethyl)-3-(isobutyl α-D-glucopyranose-4-yl)-1-(2-chloroethyl)-1-nitrosourea] | 160 | 4.43 | 3/6 | > 360 | 36.1 | 0 to 10 | 0 | 0 to 10 | 0 | 520 | – | – | – | –
5 | CCCCO[C@H]1O[C@H](CN(C)C(=O)N(CCCl)N=O)[C@H](O)[C@H](O)[C@H]1O [Compound 105, 3-methyl-3-(n-butyl α-D-galactopyranose-6-yl)-1-(2-chloroethyl)-1-nitrosourea] | 130 | 3.59 | 3/6 | > 320 | 36.2 | – | – | – | – | 320 | 0 to 10 | 5.7 | 0 to 10 | 0
6 | CCN(C[C@H]1O[C@H](OCC(C)C)[C@H](O)[C@@H](O)[C@H]1O)C(=O)N(CCCl)N=O [Compound 108, 3-ethyl-3-(isobutyl α-D-galactopyranose-6-yl)-1-(2-chloroethyl)-1-nitrosourea] | 130 | 4.24 | 3/6 | > 320 | 30.7 | – | – | – | – | 390 | 0 to 10 | 7.8 | 0 to 10 | 0
7 | CCOCCN(C[C@H]1O[C@H](OCC(C)C)[C@H](O)[C@@H](O)[C@H]1O)C(=O)N(CCCl)N=O [Compound 109, 3-(2-ethoxyethyl)-3-(isobutyl α-D-galactopyranose-6-yl)-1-(2-chloroethyl)-1-nitrosourea] | 200 | 3.74 | 4/6 | > 430 | 53.5 | 0 to 10 | 0 | 0 to 10 | 0 | 655 | – | – | – | –
8 | CCC(C)N(C[C@H]1O[C@H](OCCOCOC)[C@H](O)[C@@H](O)[C@H]1O)C(=O)N(CCCl)N=O (stereo partly shown) [Compound 115] | 200 | 3.2 | 6/6 | > 700 | 62.5 | 0 to 10 | 0 | 0 to 10 | 0 | 600 | – | – | – | –
9 | COCC(C)N(C(=O)N(CCCl)N=O)[C@H]1[C@@H](OCC(C)C)O[C@H](CO)[C@H](O)[C@@H]1O (stereo partly drawn) [Compound 124, 3-(1-methyl-2-methoxyethyl)-3-(isobutyl α-D-galactopyranose-2-yl)-1-(2-chloroethyl)-1-nitrosourea] | 210 | 5.3 | 3/6 | > 360 | 39.6 | 0 to 10 | 0 | 0 to 10 | 0 | 745 | – | – | – | –
10 | COCCCN(C[C@H]1O[C@H](OCC(C)C)[C@@H](O)[C@@H](O)[C@H]1O)C(=O)N(CCCl)N=O [Compound 146, 3-(3-methoxy-n-propyl)-3-(isobutyl α-D-talopyranose-6-yl)-1-(2-chloroethyl)-1-nitrosourea] | 180 | 3.19 | 5/6 | > 620 | 56.4 | 0 to 10 | 0 | 0 to 10 | 0 | 595 | – | – | – | –
11 | COCCCO[C@H]1O[C@H](CN(C(=O)N(CCCl)N=O)C(C)(C)C)[C@@H](O)[C@H](O)[C@H]1O [Compound 179, 3-tert-butyl-3-(3-methoxy-n-propyl α-D-glucopyranose-6-yl)-1-(2-chloroethyl)-1-nitrosourea] | 180 | 2.79 | 6/6 | > 700 | 64.4 | 0 to 10 | 0 | 0 to 10 | 0 | 560 | – | – | – | –
12 | CC(C)(C)CN(C[C@H]1O[C@H](OCC2CCCO2)[C@H](O)[C@@H](O)[C@@H]1O)C(=O)N(CCCl)N=O (stereo partly drawn) [Compound 188, 3-neopentyl-3-(tetrahydrofurfuryl α-D-glucopyranose-6-yl)-1-(2-chloroethyl)-1-nitrosourea] | 170 | 2.72 | 6/6 | > 700 | 62.5 | 0 to 10 | 0 | 0 to 10 | 0 | 550 | – | – | – | –
13 | CC(C)(C)N(C[C@H]1O[C@H](OCC2CCCO2)[C@H](O)[C@@H](O)[C@@H]1O)C(=O)N(CCCl)N=O (stereo partly drawn) [Compound 193, 3-tert-butyl-3-(tetrahydrofurfuryl α-D-glucopyranose-6-yl)-1-(2-chloroethyl)-1-nitrosourea] | 160 | 2.52 | 6/6 | > 700 | 63.4 | 0 to 10 | 0 | 0 to 10 | 0 | 550 | – | – | – | –
